Experiment [1] has as its system 3T3-L1 adipocytes. Briefly: Reversal of TNFα-induced insulin resistance, 2-deoxyglucose (2-DOG) uptake. In kind it is cell-based. The conditions noted are these: 5 mM ASA and/or 10 μM TGZ in final 24 h of 72 h TNFα treatment. How it is done:
Initially, a model of TNFα-induced insulin resistance in 3T3-L1 adipocytes was established as described previously (Sartipy and Loskutoff J Biol Chem 278:52298-52306, 2003). Following exposure of 3T3-L1 adipocytes to 3 ng/ml TNFα for 72 h, insulin resistance was determined by the ability of the cells to take up 2-deoxyglucose (2-DOG) in response to insulin. TNFα caused a 37% decrease in 2-DOG uptake compared with insulin-stimulated vehicle-treated cells (p<0.0001) (Table 1).
3T3-L1 adipocytes were either treated with vehicle—(Veh), 3 ng/ml TNFα-(TNF) or 3 ng/ml TNFα plus 10 μM TGZ and 5 mM ASA (TTA) as detailed above. Cells were then treated with insulin (0 or 10 nM) for 30 min followed by measurement of 2-deoxyglucose (2-DOG) uptake over the final 10 min of insulin stimulation. Data are presented as % change in 2-DOG uptake compared with vehicle-treated, insulin-stimulated cells and represent mean values±SEM of >3 independent experiments and each data point was assayed in triplicate. […] The amount of 2-DOG transported in vehicle-treated adipocytes was 20.5±3.4 pmol/min/well. Statistical analyses were performed using Student's t-Test assuming 2-tailed distribution and 2-sample equal variance.

Experiment [2] deals with 3T3-L1 adipocytes. Briefly: HA-tagged GLUT4 translocation to the plasma membrane. In kind it is cell-based. The following applies: 10 μM for 20 h (ASA 5 mM), then 0.5 nM insulin. As to the method:
FIGS. 2a and 2b are graphical representations of a compound stimulation of HA-tagged GLUT4 translocation to the plasma membrane in 3T3-L1 adipocytes. Adipocytes were incubated with 10 μM of each compound for 20 h prior to acute stimulation with 0.5 nM of insulin and measurement of HA-tagged GLUT4 translocation to the plasma membrane. a. The effect of the compound classes closest to TNFα plus ASA and TGZ co-incubated samples GES profile (see FIG. 1) on HA-tagged GLUT4 movement. Data are presented as fold change compared with 0.5 nM insulin alone set at 1.0 and represent mean values±SEM; n=12-40 per class. b. Individual CAI members effect on GLUT4 movement. […]
A secondary screen was next undertaken to test the 8 drug classes ranked most similar to the insulin re-sensitised TNFαplus ASA and TGZ co-treated samples to determine their ability to affect exogenous HA-tagged GLUT4 translocation to the plasma membrane in the presence of submaximal 0.5 nM insulin (Govers et al. Mol Cell Biol 24:6456-6466, 2004). Members from the sodium channel blockers, beta lactams, GABA antagonists, sulfamide antifolates, lipoxygenase inhibitors, dopamine antagonists, carbonic anhydrase inhibitors (CAIs) and antibiotics were incubated at 10 μM doses for 20 h and the overall effect of each class member was assessed and averaged.

Regarding `CC(=O)Oc1ccccc1C(=O)O` [ASA, aspirin], the “reversal of TNFα impairment of insulin-stimulated 2-DOG uptake” value in the experiment with 3T3-L1 adipocytes [1] was “fully reversed TNFα effects”. Moreover, the “HA-GLUT4 translocation above submaximal insulin” value in the experiment with 3T3-L1 adipocytes [2] was “increased”.

(Values after US20110318270A1, “DRUG IDENTIFICATION PROTOCOL FOR TYPE 2 DIABETES BASED ON GENE EXPRESSION SIGNATURES” (VERVA PHARMACEUTICALS LTD, priority 2009, published 2011).)
